Measured values as given in patent publication US8163795B2, “Chroman derivatives, medicaments and use in therapy” (Marshall Edwards, Inc., priority 2004, dated 2012).
Read-outs that look alike come from different tables or passages of the source.

What was measured:
[1] = tested on: TRAIL-sensitive and -resistant melanoma cells; assay: Apoptosis incidence, statements over several melanoma cell lines; format: cell-based; details: for incidence of apoptosis: 4 μM
PGE2 = assay: Eicosanoid synthesis in LPS-stimulated murine macrophages (RAW 264.7); format: cell-based, mouse; details: 10 μM; negative values indicate inhibition
Procedure: (§1) The mouse macrophage cell line RAW 264.7 was cultured in DMEM supplemented with foetal calf serum (FCS), 2 mM glutamine and 50 U/ml penicillin/streptomycin. Subconfluent cells were detached from the flask by gentle scraping and 24-well plates seeded at 5×10^5 cells per well and allowed to adhere for 1 hr. Cells were then treated either test compound at a concentration of 10 μM (in 0.025% DMSO) or vehicle alone, and incubated for 1 hr. LPS 50 ng/ml (LPS—Sigma-Aldrich) was then added. After incubation for 16 hrs, culture media was collected and stored at −80° C. for ecosanoid measurements using enzyme immunometric assays (PGE2 and TXB2—Cayman Chemical).
(§2) Table 16: Percentage change in eicosanoid synthesis after incubating test compound at 10 μM compared with incubation with vehicle alone.

TXB2 = assay: as above; format: cell-based, mouse; details: 10 μM; negative values indicate inhibition
Procedure: as §1, §2

[2] = tested on: HPAC pancreatic cancer tumours; assay: Pilot in vivo efficacy study, HPAC tumour bearing mice; set-up: species or system Athymic nu/nu BALB/c mice
Source text: Subconfluent (80%) flasks of HPAC cells were trypsinised, washed in Hanks balanced salt solution (Sigma), resuspended in dubellco's minimal essential medium (Sigma) and an equal volume of Matrigel™ (Becton Dickson) at a density of 3.7×10^7 cells per ml. Athymic nu/nu BALB/c mice were s.c. inoculated with 3.7×10^6 HPAC cells bi-laterally midway along the dorsal surface. For the HMC (n=3 per dosage regimen) and control groups (n=2), treatment commenced five days post inoculation to allow tumour formation. HMC was formulated 20% HPBCD and delivered i.p. daily for 15 days. The control group received equivalent (weight:weight) i.p. doses of 20% HPBCD. Tumour measurements commenced on day 5 post inoculation (10×10 mm^2) and were measured in 2 dimensions, length (a) and width (b), using calipers. Tumor weight (W) was calculated by the formula W=ab2/2, where a, is the longer of the 2 measurements (Odwyer et al., 1994). Tumour proliferation curves were analyzed with respect to maximal tumour inhibition (treated/control, TIC). On sacrifice, liver, kidney, femur, stomach and colon tissue were fixed in buffered formalin, embedded in paraffin, sections cut and stained with H&E. Stained sections were then submitted to Rothwell consulting for histopathology analysis. Serum biochemistry was conducted on bloods taken from control, vehicle control and HMC treatment groups. Serum analysis was conducted by Veterinary Clinical pathology (U. Syd).
Histopathological examination of haematoxylin and eosin-stained sections cut from formalin-fixed tissues from two series of experimental mice was made. The liver, kidney, stomach and colon were examined for evidence of toxic damage, the spleen and bone marrow for evidence of myelosuppression and the tumour for degree of necrosis. A score of 0-5 was allocated to each tumour specimen for the degree of necrosis present, a 0 score representing, no necrosis and a score of 5, total necrosis. The sections were scored ‘blind’ on two separate occasions and the final score given in the results is the mean of these two scores.

[3] = tested on: Neonatal foreskin fibroblasts (NFF); assay: Proliferation assay (MTT), normal cell toxicity; format: cell-based, Human; details: Homo sapiens, Fibroblast, read-out: IC50
Procedure: The normal cell line NFF (neonatal foreskin fibroblasts) was a sift from Dr. Peter Parsons (Queensland Institute of Medical Research). RK (rabbit kidney) cells were obtained from Miller Whalley (Macquarie University). Both cell lines were cultured in RPMI supplemented with 10% FCS(CSL, Australia), penicillin (100 U/ml), streptomycin ([…]), L-glutamine (2 mM) and sodium bicarbonate (1.2 g/L), and cultured at 37° C. in a humidified atmosphere of 5% CO2.
(§3) IC50 values were determined for each cell line. Cells were seeded in 96-well plates at an appropriate cell density as determined from growth kinetics analysis and cultured for 5 days in the absence and presence of the test compounds. Cell proliferation was assessed after the addition of 20 μl of 3-4,5 dimethylthiazol-2,5-diphenyl tetrazolium bromide (MTT, 2.5 mg/ml in PBS, Sigma) for 3-4 hrs at 37° C. according to manufacturer's instructions. IC50 values were calculated from semi-log plots of % of control proliferation on the y-axis against log dose on the x-axis.

MM200 melanoma cell line = assay: HMC combination with cisplatin (synergy); format: cell-based; details: for IC50: Table 8, single agent
Procedure: as §3
3-D model analysis of the cytotoxic interaction between drug A and drug B enables the representation of predicted inhibitory effect of two drugs in combination in 3 dimensions to reveal actual regions of synergy or antagonism. The 3D synergy plots are based on a theory of “Theretical Additivity” (TA) as outlined by Kanzawa et al (Int. J. Cancer 71, 311-319 (1997)). Theoretical Additivity was calculated from the cytotoxicities of drug A and drug B as monotherapies using the following formula which assumes the drugs are mutually exclusive inhibitors: […]
The TA is calculated for each combination of drug concentrations and subtracted from the observed experimental effect for each combination to give a measurement of synergisitic action.
HMC synergy with cisplatin was assessed either in combination over 5 days exposure or in sequence (HMC→cisplatin) against the MM200 melanoma cell line. It was difficult to assess for synergisitic toxicity using a change in IC50 as a measure of synergy due to HMC toxicity as monotherapy (Table 8). […] Evidence of synergy using the HMC-cisplatin combination was further assessed using the HMC→cisplatin sequence (24 hr exposure to each compound in sequence) against the melanoma cell line MM200. Using change in IC50 to assess for synergy it was noted that HMC at concentrations of 2 μM markedly chemosensitised the MM200 cells to cisplatin by >1000 fold (Table 8). HMC induced chemosensitisation of MM200 cells to cisplatin was confirmed using 3D analysis of the data (FIG. 11B).

Q: How did the apoptosis ([1]; 2 μM, 24 and 48 hrs of exposure, all TRAIL-sensitive and -resistant melanoma cells) turn out when `COc1ccc(C2c3ccc(O)cc3OCC2c2ccc(O)cc2)cc1` (centres unmarked) [Compound 1, 3-(4-hydroxyphenyl)-4-(4-methoxyphenyl)chroman-7-ol] was run?
A: 7-10%

Q: What about the incidence of apoptosis ([1]; 24 hr exposure, the other cell lines (not MEL-RM, IGR3)) of the same compound?
A: ~9%

Q: And the incidence of apoptosis ([1]; 48 hr, all cell lines examined)?
A: 21-42%

Q: What about the “Percentage change in PGE2 synthesis vs vehicle alone” value (PGE2) of the same compound?
A: −33.8%

Q: What about the “Percentage change in TXB2 synthesis vs vehicle alone” value (TXB2) of the same compound?
A: 0%

Q: What about the “final tumour burden (mean terminal tumour mass), % T/C” value ([2]; 100 mg/kg i.p. daily, 15 days) of the same compound?
A: 62%

Q: And the “proliferation of HPAC tumours over the treatment period vs vehicle control” value ([2]; 100 mg/kg i.p. daily, 15 days, in 20% HPBCD)?
A: significantly retarded the proliferation of HPAC tumours

Q: What about the “Necrosis Score 0-5 (tumour)” value ([2]; individual treated mice, 0 no necrosis, 5 total necrosis, mean of two blind scores) of the same compound?
A: 2

Q: And the IC50 ([3]; Table 1, Neonatal Foreskin Fibroblasts (Human, NFF))?
A: 86.1 ± 7.6 µM

Q: What about the IC50 ([3]; NFF) of the same compound?
A: 86 µM

Q: What about the IC50 (MM200 melanoma cell line; 120 h, 5 days exposure, read-out: IC50, Combined (monotherapy)) of the same compound?
A: 0.72 µM

Q: What about the “Change Factor (HMC first)” value (MM200 melanoma cell line; HMC 1 uM 24 hr then cisplatin 24 hr) of the same compound?
A: −1.31

Q: And the “Change Factor (HMC first)” value (MM200 melanoma cell line; HMC 2 uM 24 hr then cisplatin 24 hr)?
A: >10000

Q: What about the “chemosensitisation of MM200 cells to cisplatin (change in IC50)” value (MM200 melanoma cell line; HMC 2 μM, HMC→cisplatin sequence) of the same compound?
A: > 1000 fold

Q: And the “Change Factor (HMC first)” value (MM200 melanoma cell line; HMC 5 uM 24 hr then cisplatin 24 hr)?
A: >10000

Q: And the “Change Factor (HMC first)” value (MM200 melanoma cell line; HMC 10 uM 24 hr then cisplatin 24 hr)?
A: >10000

Q: And the IC50 (MM200 melanoma cell line; 24 hr exposure, read-out: IC50, 24 hr (monotherapy))?
A: 20.6 µM
